Data as given in US20080293969A1, “18F-Labeled Daa Analogues and Method of Labeling These Analogues as Positron Emission Tomography (Pet) Tracers For Imaging Peripheral Benzodiazepine Receptors” (GE Healthcare Limited, priority 2005, published 2008).

How the values were obtained:
[1] = molecular target: PBR (Homo sapiens, UniProt P30536); settings: reported, Drug Dev. Research, 2001, vol. 52, 475-484; cited from earlier work
[2] = Biodistribution in rats; format: in vivo, male Sprague-Dawley rats; settings: 10 MBq/kg tail vein, 15 min post-injection
Description: SAN1 at 10 MBq/kg was injected in the tail vein of male Sprague-Dawley rats. Rats were sacrificed 15 min post-injection and blood, cortex, olfactory bulb, adrenal and cerebellum were dissected, weighed and radioactivity in the organs was measured. Uptake in organs was expressed as Standardized Uptake Value, SUV. The scope of this experiment was to assess blood brain penetration of the radiolabeled compound as well as its distribution to organs known to express PBR, e.g. adrenal medulla. […] Additionally, we observed a large uptake of SAN1 in adrenal which is the peripheral organ with the highest density of PBRs. Biodistribution data from 4 rats was summarized and is shown in the diagram below, error bars represent the SEM.

[3] = molecular target: T1, peripheral benzodiazepine receptors (PBR) (Sus scrofa, UniProt Q6UN27); experiment: Frozen section autoradiography; format: binding, pig
T1 construct: from tissue; host or cells: pig adrenal cryosections (rat heart and rat brain sections were run in the same assay)
T1 sequence (Q6UN27 1-169): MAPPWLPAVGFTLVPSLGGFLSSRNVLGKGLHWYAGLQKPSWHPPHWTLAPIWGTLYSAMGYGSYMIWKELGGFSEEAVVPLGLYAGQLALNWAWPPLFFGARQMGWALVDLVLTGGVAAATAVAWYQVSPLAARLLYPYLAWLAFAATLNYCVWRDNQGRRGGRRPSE
Description: (§1) Frozen Section Autoradiography.
(§2) Cryosections of pig adrenal, rat heart and rat brain were incubated with [^18F] labeled N-(2,5-dimethoxybenzyl)-3-fluoro-N-(5-fluoro-2-phenoxy-phenyl)propanamide (SAN1) for 40 min at R.T. in 50 mM Tris-HCl, pH 7.4, in the presence or absence of 1 μM PK11195 (selective PBR ligand). Thereafter, sections were washed in buffer 3×1 min, dried in a heated oven (37° C.) and exposed to phosphor imaging plates for 240 min. Assessment of the selectivity of the radioligand for PBRs was assessed by comparing the regional distribution of radioactivity with known distribution of PBRs in tissue. Another parameter investigated was the blocking effect in sections which were co-incubated with an excess of PK11195.

[4] = test system: peripheral benzodiazepine receptors (PBR); experiment: Frozen section autoradiography; format: binding, pig; settings: frozen section autoradiography
Description: as §1, §2

Chain of PBR (P30536 whole entry, species assumed): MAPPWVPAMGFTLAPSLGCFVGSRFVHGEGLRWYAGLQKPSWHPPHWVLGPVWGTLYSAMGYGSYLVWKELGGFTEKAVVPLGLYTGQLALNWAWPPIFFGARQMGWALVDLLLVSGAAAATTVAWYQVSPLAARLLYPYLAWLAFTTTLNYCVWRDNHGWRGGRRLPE

SMILES | affinity and selectivity for PBR [1] | brain to blood ratio ([2]; all regions analyzed (cortex, olfactory bulb, cerebellum), particularly olfactory bulb) | uptake in adrenal ([2]; uptake expressed as SUV) | blocking of adrenal medulla uptake by an excess of PK11195 ([3]; co-incubated with 1 μM PK11195) | uptake in adrenal medulla ([3]; cryosections of pig adrenal, incubated 40 min at R.T., 50 mM Tris-HCl pH 7.4) | binding and specificity for PBR-rich tissues [4]
CC(=O)N(Cc1ccccc1OC(C)C)c1ccc(Cl)cc1Oc1ccccc1 [DAA1097, N-(4-chloro-2-phenoxyphenyl)-N-(2-isopropoxybenzyl)-acetamide] | high affinity selective ligands |  |  |  |  | 
COc1ccc(OC)c(CN(C(C)=O)c2cc(F)ccc2Oc2ccccc2)c1 [DAA1106, N-(2,5-dimethoxybenzyl)-N-(5-fluoro-2-phenoxyphenyl)acetamide] | high affinity selective ligands |  |  |  |  | 
COc1ccc(OC)c(CN(C(=O)CC[18F])c2cc(F)ccc2Oc2ccccc2)c1 [SAN1, [^18F] labeled N-(2,5-dimethoxybenzyl)-3-fluoro-N-(5-fluoro-2-phenoxy-phenyl)propanamide] |  | above 1 | large uptake | completely blocked | high uptake | good binding and specificity
